Assays:
Assay type in all cases: in vivo
[1] = test system: ragweed (common ragweed, Ambrosia elatior); experiment: Test A preemergence; conditions: Ambrosia artemisiifolia, pre-emergence, 240 h
Procedure, shortened: (§1)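 Visual injury scored 0–100 (100 = complete control) against untreated controls about 10 days after treatment in a greenhouse. Test chemicals, formulated with surfactant in non-phytotoxic solvent, were sprayed on soil preemergence or on 2-10 cm, one- to two-leaf plants postemergence.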

[2] = test system: Italian ryegrass (Lolium multiflorum); experiment: Test A preemergence; conditions: Lolium multiflorum, pre-emergence, 240 h
Procedure, shortened: as §1

[3] = test system: barnyardgrass (Echinochloa crus-galli); experiment: Test A preemergence; conditions: Echinochloa crus-galli, pre-emergence, 240 h
Procedure, shortened: as §1

kochia (Kochia scoparia) [4] = experiment: Test A preemergence; conditions: Bassia scoparia, pre-emergence, 240 h
Procedure, shortened: as §1

[5] = test system: pigweed (Amaranthus retroflexus); experiment: Test A preemergence; conditions: Amaranthus retroflexus, pre-emergence, 240 h
Procedure, shortened: as §1

[6] = test system: giant foxtail (Setaria faberii); experiment: Test A preemergence; conditions: Setaria faberi, pre-emergence, 240 h
Procedure, shortened: as §1

[7] = test system: ragweed (common ragweed, Ambrosia elatior); experiment: Test A postemergence; conditions: Ambrosia artemisiifolia, post-emergence, 240 h, 0 to 100 scale, read-out: Plant response rating, Ragweed
Procedure, shortened: as §1

[8] = test system: Italian ryegrass (Lolium multiflorum); experiment: Test A postemergence; conditions: Lolium multiflorum, post-emergence, 240 h, 0 to 100 scale, read-out: Plant response rating, Ryegrass, Italian
Procedure, shortened: as §1

[9] = test system: barnyardgrass (Echinochloa crus-galli); experiment: Test A postemergence; conditions: Echinochloa crus-galli, post-emergence, 240 h, 0 to 100 scale, read-out: Plant response rating, Barnyardgrass
Procedure, shortened: as §1

corn (Zea mays) = experiment: Test A postemergence; conditions: Zea mays, post-emergence, 240 h, 0 to 100 scale
Procedure, shortened: as §1

kochia (Kochia scoparia) [10] = experiment: Test A postemergence; conditions: Bassia scoparia, post-emergence, 240 h, 0 to 100 scale, read-out: Plant response rating, Kochia
Procedure, shortened: as §1

[11] = test system: pigweed (Amaranthus retroflexus); experiment: Test A postemergence; conditions: Amaranthus retroflexus, post-emergence, 240 h, 0 to 100 scale, read-out: Plant response rating, Pigweed
Procedure, shortened: as §1

[12] = test system: wheat (Triticum aestivum); experiment: Test A postemergence; conditions: Triticum aestivum, post-emergence, 240 h, 0 to 100 scale, read-out: Plant response rating, Wheat
Procedure, shortened: as §1

[13] = test system: blackgrass (Alopecurus myosuroides); experiment: Test A postemergence; conditions: Alopecurus myosuroides, post-emergence, 240 h, 0 to 100 scale, read-out: Plant response rating, Blackgrass
Procedure, shortened: as §1

[14] = test system: giant foxtail (Setaria faberii); experiment: Test A postemergence; conditions: Setaria faberi, post-emergence, 240 h, 0 to 100 scale, read-out: Plant response rating, Foxtail, Giant
Procedure, shortened: as §1

[15] = test system: galium (catchweed bedstraw, Galium aparine); experiment: Test A postemergence; conditions: Galium, post-emergence, 240 h, 0 to 100 scale, read-out: Plant response rating, Galium
Procedure, shortened: as §1

[16] = test system: sedge, umbrella (small-flower umbrella sedge, Cyperus difformis); experiment: Test B flooded paddy; conditions: Cyperus difformis, 336 h; 250 g ai/ha, Flood, 13 to 15 days, scale 0 (no effect) to 100 (complete control); read-out: Plant response rating, Sedge, Umbrella
Procedure, shortened: (§2)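 Ratings were visual and made relative to untreated controls after 13 to 15 greenhouse days.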

[17] = test system: barnyardgrass (Echinochloa crus-galli); experiment: Test B flooded paddy; conditions: Echinochloa crus-galli, 336 h; 250 g ai/ha, Flood, 13 to 15 days, scale 0 (no effect) to 100 (complete control); read-out: Plant response rating, Barnyardgrass
Procedure, shortened: as §2

rice (Oryza sativa) = experiment: Test B flooded paddy; conditions: Oryza sativa, 336 h; 250 g ai/ha, Flood, 13 to 15 days, scale 0 (no effect) to 100 (complete control); read-out: Plant response rating, Rice
Procedure, shortened: as §2

[18] = test system: ducksalad (Heteranthera limosa); experiment: Test B flooded paddy; conditions: Heteranthera limosa, 336 h; 250 g ai/ha, Flood, 13 to 15 days, scale 0 (no effect) to 100 (complete control); read-out: Plant response rating, Ducksalad
Procedure, shortened: as §2

## N#Cc1cccc(Oc2ncc(Cl)cn2)c1Oc1ccc(Cl)cn1 [Compound 16, 2-[(5-chloro-2-pyridinyl)oxy]-3-[(5-chloro-2-pyrimidinyl)oxy]benzonitrile]
[1]; 31 g ai/ha, 0 to 100 scale (0 no effect, 100 complete control), read-out: Ragweed plant response rating
  pest or weed control at 31 g/ha: 0%
[1]; 125 g ai/ha, 0 to 100 scale (0 no effect, 100 complete control), read-out: Ragweed plant response rating
  pest or weed control at 125 g/ha: 0%
[2]; 31 g ai/ha, 0 to 100 scale (0 no effect, 100 complete control), read-out: Ryegrass, Italian plant response rating
  pest or weed control at 31 g/ha: 0%
[2]; 125 g ai/ha, 0 to 100 scale (0 no effect, 100 complete control), read-out: Ryegrass, Italian plant response rating
  pest or weed control at 125 g/ha: 20%
[3]; 31 g ai/ha, 0 to 100 scale (0 no effect, 100 complete control), read-out: Barnyardgrass plant response rating
  pest or weed control at 31 g/ha: 30%
[3]; 125 g ai/ha, 0 to 100 scale, read-out: Plant response rating, Barnyardgrass
  pest or weed control at 125 g/ha: 70%
Kochia (Kochia scoparia) [4]; 31 g ai/ha, 0 to 100 scale (0 no effect, 100 complete control), read-out: Kochia plant response rating
  pest or weed control at 31 g/ha: 30%
Kochia (Kochia scoparia) [4]; 125 g ai/ha, 0 to 100 scale (0 no effect, 100 complete control), read-out: Kochia plant response rating
  pest or weed control at 125 g/ha: 90%
[5]; 31 g ai/ha, 0 to 100 scale (0 no effect, 100 complete control), read-out: Pigweed plant response rating
  pest or weed control at 31 g/ha: 100%
[5]; 125 g ai/ha, 0 to 100 scale (0 no effect, 100 complete control), read-out: Pigweed plant response rating
  pest or weed control at 125 g/ha: 100%
[6]; 31 g ai/ha, 0 to 100 scale (0 no effect, 100 complete control), read-out: Foxtail, Giant plant response rating
  pest or weed control at 31 g/ha: 90%
[6]; 125 g ai/ha, 0 to 100 scale (0 no effect, 100 complete control), read-out: Foxtail, Giant plant response rating
  pest or weed control at 125 g/ha: 100%
[7]; 31 g ai/ha
  pest or weed control at 31 g/ha: 10%
[7]; 125 g ai/ha
  pest or weed control at 125 g/ha: 30%
[8]; 31 g ai/ha
  pest or weed control at 31 g/ha: 40%
[8]; 125 g ai/ha
  pest or weed control at 125 g/ha: 80%
[9]; 31 g ai/ha
  pest or weed control at 31 g/ha: 10%
[9]; 125 g ai/ha
  pest or weed control at 125 g/ha: 70%
Corn (Zea mays); 31 g ai/ha
  Corn plant response rating (crop injury, 0 = no effect, 100 = complete kill) at 31 g/ha: 0%
Corn (Zea mays); 125 g ai/ha
  Corn plant response rating (crop injury, 0 = no effect, 100 = complete kill) at 125 g/ha: 20%
Kochia (Kochia scoparia) [10]; 31 g ai/ha
  pest or weed control at 31 g/ha: 50%
Kochia (Kochia scoparia) [10]; 125 g ai/ha
  pest or weed control at 125 g/ha: 100%
[11]; 31 g ai/ha
  pest or weed control at 31 g/ha: 100%
[11]; 125 g ai/ha
  pest or weed control at 125 g/ha: 100%
[12]; 31 g ai/ha
  plant injury at 31 g/ha: 0%
[12]; 125 g ai/ha
  plant injury at 125 g/ha: 20%
[13]; 31 g ai/ha
  pest or weed control at 31 g/ha: 50%
[13]; 125 g ai/ha
  pest or weed control at 125 g/ha: 70%
[14]; 31 g ai/ha
  pest or weed control at 31 g/ha: 70%
[14]; 125 g ai/ha
  pest or weed control at 125 g/ha: 80%
[15]; 31 g ai/ha
  pest or weed control at 31 g/ha: 90%
[15]; 125 g ai/ha
  pest or weed control at 125 g/ha: 90%
[16]
  pest or weed control at 250 g/ha: 95%
[17]
  pest or weed control at 250 g/ha: 20%
Rice (Oryza sativa)
  plant injury at 250 g/ha: 40%
[18]
  pest or weed control at 250 g/ha: 90%

## Fc1cccc(Oc2ncc(Cl)cn2)c1Oc1ccc(Cl)nc1 [Compound 20]
[1]; 1000 g ai/ha, 0 to 100 scale, read-out: Plant response rating, Ragweed
  pest or weed control at 1000 g/ha: 40%
[2]; 1000 g ai/ha, 0 to 100 scale, read-out: Plant response rating, Ryegrass, Italian
  pest or weed control at 1000 g/ha: 70%
[3]; 1000 g ai/ha, 0 to 100 scale, read-out: Plant response rating, Barnyardgrass
  pest or weed control at 1000 g/ha: 100%
Kochia (Kochia scoparia) [4]; 1000 g ai/ha, 0 to 100 scale, read-out: Plant response rating, Kochia
  pest or weed control at 1000 g/ha: 90%
[5]; 1000 g ai/ha, 0 to 100 scale, read-out: Plant response rating, Pigweed
  pest or weed control at 1000 g/ha: 100%
[6]; 1000 g ai/ha, 0 to 100 scale, read-out: Plant response rating, Foxtail, Giant
  pest or weed control at 1000 g/ha: 100%
[7]; 1000 g ai/ha
  pest or weed control at 1000 g/ha: 60%
[8]; 1000 g ai/ha
  pest or weed control at 1000 g/ha: 40%
[9]; 1000 g ai/ha, 0 no effect, 100 complete control
  pest or weed control at 1000 g/ha: 90%
Corn (Zea mays); 1000 g ai/ha
  Corn plant response rating (crop injury, 0 = no effect, 100 = complete kill) at 1000 g/ha: 50%
Kochia (Kochia scoparia) [10]; 1000 g ai/ha
  pest or weed control at 1000 g/ha: 90%
[11]; 1000 g ai/ha
  pest or weed control at 1000 g/ha: 100%
[12]; 1000 g ai/ha
  plant injury at 1000 g/ha: 50%
[13]; 1000 g ai/ha
  pest or weed control at 1000 g/ha: 60%
[14]; 1000 g ai/ha
  pest or weed control at 1000 g/ha: 90%
[15]; 1000 g ai/ha
  pest or weed control at 1000 g/ha: 90%
[16]
  pest or weed control at 250 g/ha: 90%
[17]
  pest or weed control at 250 g/ha: 20%
Rice (Oryza sativa)
  plant injury at 250 g/ha: 15%
[18]
  pest or weed control at 250 g/ha: 95%

Reference: US20170190671A1, “BIS(ARYL)CATECHOL DERIVATIVES AS HERBICIDES” (E I DU PONT DE NEMOURS AND COMPANY, priority 2014, published 2017)
